Source: patent publication US10052301B2, “Derivatives of propane diyl dicinnamate” (ORX PHARMACEUTICAL CORPORATION, priority 2009, dated 2018)
Where two headings read alike, the source gives them in different places.

Columns and labels:
B16-BL6 = settings: Banskota et al., J Ethnopharmacol 2002; read-out: EC50 against B16-BL6; cited from earlier work
B-16 melanoma cell line = experiment: [3H]-thymidine incorporation, in vitro anticancer activity; type: cell-based; settings: B16, 24 h + 24 h incubation
Method: The cell lines were maintained in EMEM medium supplemented with 10% FCS, 0.1% sodium bicarbonate and 12 mM glutamine. In a typical procedure, 1×10^4 cells were seeded into each of 96 well plate in 90 μL volume of medium. The plates were incubated for 24 h in the presence of CO2 to allow for cell attachment. After 24 h, test compounds were evaluated at five 10 fold dilutions from 1:10, 1:100, 1:1000, 1:10000 and 1:100000. To each test well 100 μL of test compound solution was added and the medium with vehicle was added to control wells and the plates were further incubated. After 24 h of incubation, 10 μL of [3H]-thymidine was added to each well to obtain a 1 μCi concentration per well and incubated for a further 24 h. The plates were terminated, cells harvested and read by microbeta plate reader.

[1] = system: MCF-7 (human breast carcinoma cells); experiment: MTT cell proliferation and viability assay, MCF-7; type: cell-based; settings: for EC50: MCF7, Table 2, 72 h; for IC50: MCF7, Table 3, 72 h, read-out: Inhibition Concentration (IC50) μM MCF-7 (Breast)
Method: (§1) Normal human fibroblast cell lines (GM9503 and GM8399) and human carcinoma cell lines MCF-7, A549, HCT116, SKOV-3 and PC-3 were maintained in DMEM (Dulbeco's Modified Essential Medium) supplemented with 10% FBS (Fetal Bovine Serum). In addition, murine leukemia MDAY-D2 cells were maintained in RPMI 1640 media supplemented with 5% FBS. All media were supplemented with 100 […] (all from Hyclone, Logan, Utah). Cells were incubated in a humidified air atmosphere containing 5% CO2 at 37° C.
(§2) Cell growth and viability were measured using the 3-(4,5-dimethythiazol-2-yl)-2,5-diphenyl tetrazolium bromide (MTT) reduction assay. MTT reagent (Sigma, St. Louis, Mo.) was prepared at 5 mg/ml in ddH2O (5× solution), filter sterilized and stored in the dark at −20° C.
(§3) To determine the optimal number of cells to seed per well, preliminary experiments were conducted examining increasing cell densities in 96 well plates. Cell were seeded at various densities and examined under the microscope after 96 h. Based on these experiments and growth curve analyses, optimal cell densities were selected for each cell line. In brief, exponentially growing cells were harvested and 100 μL of cell suspension containing approximately 2000 cells was plated in 96-well microtiter plates. After 24 hours of incubation to allow for cell attachment, cells were treated with varying concentrations of test samples in medium (60 μL/well) supplemented with 5% FBS and incubated for 72 h at 37° C. under 5% CO2. Three hours after the addition of MTT, the amount of formazan formed was measured spectrophotometrically at 570 nm with a Spectramax Plus 384 plate reader.
(§4) To assess the effects of the novel compounds on growth and viability, GM9503 (normal human fibroblast cells; 2.08×10^3 cells/well), GM8399 (normal human fibroblast cells; 2.04×10^3 cells/well), A549 (human lung carcinoma cells; 2.05×10^3 cells/well), HCT116 (human colon carcinoma cells; 2.19×10^3 cells/well), MCF-7 (human breast carcinoma cells; 2.19×10^3 cells/well), SKOV-3 (human ovarian carcinoma cells; 2.10×10^3 cells/well), PC-3 (human prostate carcinoma cells; 2.08×10^3 cells/well) and MDAY-D2 (murine leukemia cells; 2.5×10^3 cells/well) were seeded in 96 well plates in supplemented medium. Twenty-four hours post-seeding, cells were treated with either DMEM supplemented with 5% FBS (as a control) or with compounds (IIb), (Ie) and (Id) at increasing concentrations. After incubation for 72 h, cell growth and viability were measured. Each compound was tested in triplicate and the data shown in Tables 2-4 represent the mean of viable cells compared to medium control.

[2] = system: A549 (human lung carcinoma cells); experiment: MTT cell proliferation and viability assay, A549; type: cell-based; settings: for EC50: Table 2, 72 h; for IC50: Table 3, 72 h, read-out: Inhibition Concentration (IC50) μM A549 (Lung)
Method: as §1, §2, §3, §4

[3] = system: HCT116 (human colon carcinoma cells); experiment: MTT cell proliferation and viability assay, HCT116; type: cell-based; settings: for IC50: HCT-116, Table 3, 72 h, read-out: Inhibition Concentration (IC50) μM HCT116 (Colon); for EC50: HCT-116, Table 2, 72 h
Method: as §1, §2, §3, §4

[4] = system: GM9503 (normal human fibroblast cells); experiment: MTT cell proliferation and viability assay, GM9503; type: cell-based; settings: for EC50: Table 2, 72 h, read-out: Human (EC50) μM GM9503 (Normal Skin Fibroblast); for IC50: Table 4, comparative toxicity, 72 h, read-out: Inhibition Concentration (IC50) μM GM9503 (Normal human fibroblast)
Method: as §1, §2, §3, §4

[5] = system: MDAY-D2 (murine leukemia cells); experiment: MTT cell proliferation and viability assay, MDAY-D2; type: cell-based
Method: as §1, §2, §3, §4

[6] = system: PC-3 (human prostate carcinoma cells); experiment: MTT cell proliferation and viability assay, PC-3; type: cell-based; settings: Table 3, 72 h, read-out: Inhibition Concentration (IC50) μM PC-3 (Prostate)
Method: as §1, §2, §3, §4

[7] = system: SKOV-3 (human ovarian carcinoma cells); experiment: MTT cell proliferation and viability assay, SKOV-3; type: cell-based; settings: SK-OV-3, Table 3, 72 h, read-out: Inhibition Concentration (IC50) μM SKOV-3 (Ovarian)
Method: as §1, §2, §3, §4

[8] = system: GM8399 (normal human fibroblast cells); experiment: MTT cell proliferation and viability assay, GM8399; type: cell-based; settings: Table 4, comparative toxicity, 72 h, read-out: Inhibition Concentration (IC50) μM GM8399 (normal human fibroblast)
Method: as §1, §2, §3, §4

[9] = system: Human colon carcinoma cell line HCT116; experiment: Mechanism of action: microscopy of treated HCT116 cells over time; type: cell-based; settings: 30 μM; for cell morphology (mechanism of cell death): imaged at 2-16 h, 63x magnification
Method: Human colon carcinoma cell line HCT116 was treated with compounds (IIb), (Ie) and (Id) and observed over a time period to determine the mechanism of cell death. The experiment was conducted as follows:
HCT116 cells were seeded and treated with each compound. At each time point, the cells were imaged using a neutral microscope at 63× magnification prior to fixing. The time points were 2, 4, 6, 8, 12, and 16 hours.
This may potentially be caused by a population doubling at this time-point.

[10] = Mus musculus, MDAY-D2, Table 2, 72 h

Row | IC50 [1] | IC50 [2] | IC50 [3] | IC50 [6] | IC50 [7] | SMILES | EC50 (B16-BL6) | IC50 ([4]; Homo sapiens, Fibroblast) | IC50 [8] | further results
1 |  |  |  |  |  | CC(=O)OC(COC(=O)/C=C/c1ccc(O)cc1)COC(=O)/C=C/c1ccc(O)cc1 [(2E,2′E)-2-acetoxypropane-1,3-diyl bis(3-(4-hydroxyphenyl)acrylate)] | 81.9 µM |  |  | 
2 |  |  |  |  |  | COc1cc(/C=C/C(=O)OCC(COC(=O)/C=C/c2ccc(O)cc2)OC(C)=O)ccc1O (stereo not shown) [(E)-2-acetoxy-3-(((E)-3-(4-hydroxy-3-methoxyphenyl)acryloyl)oxy)propyl 3-(4-hydroxyphenyl)acrylate] | 66 µM |  |  | 
3 |  |  |  |  |  | O=C(/C=C/c1ccc(O)c(O)c1)OCc1ccccc1 [Benzyl caffeate, benzyl caffeate] | 2.03 µM |  |  | 
4 | 74.5 µM | 21 µM | 27 µM | 6.76 µM | 15.8 µM | O=C(/C=C/c1ccc(O)c(O)c1)OCC(O)COC(=O)/C=C/c1ccc(O)c(O)c1 [Compound (IIb), (2E,2′E)-2-hydroxypropane-1,3-diyl bis(3-(3,4-dihroxyphenyl) acrylate] |  | 71.2 µM | 38 µM | EC50 (B-16 melanoma cell line): 6.12 µM; EC50 [1]: 1 µM; EC50 [2]: 2.17 µM; EC50 ([4]; Homo sapiens, Fibroblast): 57.9 µM; EC50 [5, 10]: 3.4 µM; relative aggressiveness of apoptosis induction ([9]; compared among (IIb), (Ie), (Id)): the most aggressive; cell morphology (mechanism of cell death) [9]: exhibited the characteristic membrane blebbing morphology commonly seen during apoptosis
5 | 85.2 µM | 18.2 µM | 11.5 µM | 9.07 µM | 22 µM | COc1ccc(/C=C/C(=O)OCC(O)COC(=O)/C=C/c2ccccc2)cc1OC (stereo not shown) [Compound (Id), (E)-3-(cinnamoyloxy)-2-hydroxypropyl 3-(3,4-dimethoxyphenyl) acrylate] |  | 60 µM | 16 µM | EC50 (B-16 melanoma cell line): 1.08 µM; EC50 [1]: 72.2 µM; EC50 [2]: 0.59 µM; EC50 [3]: 102 µM; EC50 [5, 10]: 5 µM; cell morphology (mechanism of cell death) [9]: exhibited the characteristic membrane blebbing morphology commonly seen during apoptosis
6 | 33 µM | 33.2 µM | 27.9 µM | 9.04 µM | 16.5 µM | O=C(/C=C/c1ccccc1)OCC(O)COC(=O)/C=C/c1ccc(O)c(O)c1 (stereo not shown) [Compound (Ie), (E)-3-(cinnamoyloxy)-2-hydroxypropyl 3-(3,4-dihydroxypheyl)acrylate] |  | 37 µM | 23 µM | EC50 [1]: 25.9 µM; EC50 [2]: 0.64 µM; EC50 [3]: 59.2 µM; EC50 [5, 10]: 1.5 µM; cell morphology (mechanism of cell death) [9]: exhibited the characteristic membrane blebbing morphology commonly seen during apoptosis
7 |  |  |  |  |  | C[S+](C)[O-] [DMSO] |  |  |  | EC50 [4]: 20.3 µM; EC50 ([5]; Table 2, 72 h): 43.6 µM
8 |  |  |  |  |  | O=C(O)/C=C/c1ccc(O)c(O)c1 [caffeic Acid, caffeic acid, reference compound] |  | 22 µM | 24 µM | 
9 |  |  |  |  |  | O=C(/C=C/c1ccc(O)c(O)c1)OCC=Cc1ccccc1 [cinnamyl caffeate] | 1.92 µM |  |  | 
10 | 11.7 µM | 0.69 µM | 0.59 µM | 1.32 µM | 0.75 µM | CC(=O)O[C@H]1C(=O)[C@@]2(C)[C@H]([C@H](OC(=O)c3ccccc3)[C@]3(O)C[C@H](OC(=O)[C@H](O)[C@@H](NC(=O)c4ccccc4)c4ccccc4)C(C)=C1C3(C)C)[C@]1(OC(C)=O)CO[C@@H]1C[C@@H]2O [paclitaxel, reference compound] |  | 0.7 µM | 2.1 µM | 
11 |  |  |  |  |  | O=C(/C=C/c1ccc(O)c(O)c1)OCCc1ccccc1 [phenethyl caffeate] | 3.16 µM |  |  | 
